In PubChem BioAssay AID504741 (National Center for Advancing Translational Sciences (NCATS), 2011):

System: PBS pH 7.4 stability, 37 C, LC-MS/MS, 48 h
Assay: Inhibitors of Bloom's syndrome helicase: PBS Stability Profiling Assay
Conditions: at 2 µM; stronger effect = higher value
From the text: Survival of cells and the faithful propagation of the genome depend on elaborate mechanisms of detecting and repairing DNA damage. Treatment of advanced cancer relies on radiation therapy or chemotherapy, which kill cancer cells by causing extensive DNA damage. It is often found, that cancer cells develop resistance to therapy through enhanced activity of DNA repair functions; this has led to an increased interest in developing drugs that interfere with DNA repair, which could sensitize cancer cells to conventional therapy. Bloom syndrome helicase (BLM), is important in resolving abnormal DNA structures formed during replication or homologous recombination. Shutting down the expression of BLM leads to chromosomal instability and higher radiation sensitivity in cultured cells. After the completion of a qHTS campaign, secondary assays, and rounds of medicinal chemistry, a compound was identified to be further characterized through in vitro ADME assays. […]
2uM of compound is incubated in PBS buffer at pH 7; the reference compound is procaine. Compounds are incubated at 37 deg C for the pre-determined time periods and the when aliquots are removed. Samples are analyzed with LC-MS/MS.

O=C(Nc1ccc(F)c(C(F)(F)F)c1)Nc1nnc(-c2ccncc2)s1
percent remaining: 100%
